Experimental findings from patent US8142829B2, “Beverage composition and method of reducing degradation of monatin” (PepsiCo, Inc., priority 2008, dated 2012) are described below.

What all share (format): physicochemical
A short description of data set [1]: Monatin stabilization / degradation observations in beverage, conditions not stated. Conditions: for monatin stabilization ability (rank order): rank by number of hydroxyl groups on the aryl ring.
A short description of data set [2]: UV exposure of bottled monatin beverage, Atlas CI 5000 with Xenon arc lamp, 24 hours at 86° F. Here is the method: (§1) The following illustrates specific embodiments of the present invention (i.e., embodiments using EMIQ) but are not intended to limit it. All percentages are by weight unless otherwise stated. Heat treatment of bottled beverage was conducted in a thermostatically controlled oven. UV exposure of bottled beverage was conducted within an Atlas CI 5000 with Xenon arc lamp in a thermostatically controlled oven.
Additional analyses of the lemon/lime (“L/L”) flavored beverages above were conducted to determine formation of lactone (reversible) or lactam (irreversible) from monatin.
UV exposure of bottled beverage was conducted within an Atlas CI 5000 with Xenon arc lamp in a thermostatically controlled oven.

Data set [3] in a line: Heat treatment of bottled monatin beverage in thermostatically controlled oven, one week at 110° F. As for the experimental part:
as §1
Additional analyses of the lemon/lime (“L/L”) flavored beverages above were conducted to determine formation of lactone (reversible) or lactam (irreversible) from monatin. The accumulation of the two degradation products would reduce sweetness impact over time and reduce consumer acceptance of a product containing a beverage comprising monatin. […] The amounts of ascorbic acid (where indicated) was 333 ppm, and the amount of EMIQ (where indicated) was 7.50 ppm (50 uL of 15% EMIQ as San-Melin AO-3000=7.5 ppm).

As to `O=C(O)C=Cc1ccccc1` [cinnamic acid], in data set [1], the “monatin stabilization ability (rank order)” value (“monatin stabilization ability” below) is given as “caffeic acid (2 hydroxyl groups)>ferulic acid>coumaric acid>cinnamic acid (no hydroxyl groups)”.

Take `O=C(O)/C=C/c1ccc(O)c(O)c1` [caffeic acid]: the “monatin stabilization ability” value in data set [1] is reported as “caffeic acid (2 hydroxyl groups)>ferulic acid>coumaric acid>cinnamic acid (no hydroxyl groups)”.

As to `O=C(O)/C=C/c1ccc(O)cc1` [coumaric acid], in data set [1], the “monatin stabilization ability” value was “caffeic acid (2 hydroxyl groups)>ferulic acid>coumaric acid>cinnamic acid (no hydroxyl groups)”.

As for `COc1cc(/C=C/C(=O)O)ccc1O` [ferulic acid], the “monatin stabilization ability” value in data set [1] is given as “caffeic acid (2 hydroxyl groups)>ferulic acid>coumaric acid>cinnamic acid (no hydroxyl groups)”.

`O=C1O[C@H]([C@@H](O)CO)C(O)=C1O` [ascorbic acid]: in data set [2] (24 h of UV exposure), the “protection against pink coloration and off-flavor development” value was “protects against pink coloration and off-flavor development”. The Lactam formation in data set [2] (Cola CSD, 24 h UV exposure, 30 ppm myricitrin, 100 ppm EMIQ, 300 ppm ascorbic acid or none) is reported as 2.9 ppm. Also, in data set [2] (L/L CSD, 24 h UV exposure, 30 ppm myricitrin, 100 ppm EMIQ, 300 ppm ascorbic acid or none), the “Monatin + lactone” value came to 37.7 ppm. Further, the “Color Hue Change, UV 24 hours @ 86° F.” value in data set [2] (Lemon/Lime Carbonated Soft Drink, 265 ppm sodium benzoate, 333 ppm ascorbic acid where indicated, 30 ppm CaNa2EDTA, 50 ppm monatin, Yes* = pink to rust color develops) is on record as “No”. Also, the “formation of lactam and color hue change with ascorbic acid” value in data set [1] (non-colored carbonated soft drink) is “results in the formation of lactam, a degradation product of monatin, and an undesirable color hue change”. The “Color Hue Change, 1 week @ 110° F.” value in data set [3] (Lemon/Lime Carbonated Soft Drink, 265 ppm sodium benzoate, 333 ppm ascorbic acid where indicated, 30 ppm CaNa2EDTA, 50 ppm monatin) is “No”. In addition, the “formation of lactam from monatin” value in data set [3] (low pH matrix, heat stress conditions) is on record as “not ascorbic acid”.
